Source: PMC10744333, “New Perspective for Using Antimicrobial and Cell-Penetrating Peptides to Increase Efficacy of Antineoplastic 5-FU in Cancer Cells” (Journal of Functional Biomaterials, 2023)
Like-named read-outs stand apart in the source and are kept apart here. Where a SMILES comes first, the peptide text is derived from it.

How the values were obtained:
[1] = tested on: UM-UC-5 urothelial bladder cancer cell lines; test: tissue or blood; type: cell-based; conditions: 48 h
Procedure: (§1) A549 adenocarcinomic human alveolar basal epithelial cells, UM-UC-5 urothelial bladder cancer cell lines, and MRC-5 human normal lung fibroblast cells (all from ATCC, American Type Culture Collection, Manassas, VA, USA) were cultured in Dulbecco’s Modified Eagle Medium (DMEM) medium (Gibco®, Grand Island, NY, USA), supplemented with 10% fetal bovine serum (FBS, Gibco®, Grand Island, NY, USA) and 1% (v/v) penicillin/streptomycin (Sigma-Aldrich®, Steinheim, Germany), maintained at 37 °C and 95% humidified air in a 5% CO2 environment. Cells were cultured in monolayers in T25 cm^2 flasks (ThermoScientific®, Waltham, MA, USA) and cell media were replaced every 2–3 days. At 80% confluency, cells were subcultured. For the subculture process, 0.25% trypsin-ethylenediaminetetraacetic acid (EDTA, Sigma-Aldrich®, Steinheim, Germany), was added.
(§2) The potential of the antineoplastic drug 5-FU, five cationic antimicrobial peptides (CAMPs), and two cell-penetrating peptides (CPPs) was analyzed in UM-UC-5 and A549 cell lines. Cells were treated with drugs in concentrations ranging from 0.1 to 100 μM (for 5-FU) and 0.1 to 50 μM (for CAMPs and CPPs) for 48 h, and cell survival was evaluated using the MTT assay. […] IC50 values > 100 μM were not considered.
(§3) The cell viability was measured using the MTT (Thiazolyl blue tetrazolium bromide; cat. no. M5655; Sigma-Aldrich; Merck KGaA, Darmstadt, Germany) assay in 96-well plates. For the protocol, 5 × 10^3 cells in 200 µL of medium were grown per well for 24 h at 37 °C. Then, cells were treated with CAMPs and CPPs in the following concentrations: 0.1, 1.0, 5.0, 10, 25, and 50 µM. […] The controls were treated with 0.1% H2O and 0.1% DMSO (vehicles). After incubation for 48 h at 37 °C, cell media were aspirated and 100 µL of MTT solution (0.5 mg/mL in PBS) was added to each well. After incubation for 3 h at 37 °C protected from light, MTT solution was removed from each well and 100 µL of DMSO was added to each well to solubilize the formazan crystals. Absorbance was measured on a Tecan Infinite M200 plate reader (Tecan Group Ltd., Männedorf, Switzerland) at 570 nm. The cell viability was calculated relative to the absorbance of carrier controls. Average values were obtained by performing three independent cell viability assays (n = 3).

[2] = tested on: A549 adenocarcinomic human alveolar basal epithelial cells; type: cell-based; conditions: 48 h
Procedure: as §1, §2, §3

[3] = UM-UC-5 cells, MTT, n = 3, read-out: IC50
[4] = A549 cells, MTT, n = 3, read-out: IC50

| Molecule | IC50 [1, 3] | IC50 [2, 4] | IC50 [1] | IC50 [2] |
| --- | --- | --- | --- | --- |
| CC[C@H](C)[C@H](NC(=O)[C@@H](NC(=O)[C@@H](NC(=O)[C@H](CCCNC(=N)N)NC(=O)[C@H](CCCNC(=N)N)NC(=O)[C@H](CCC(N)=O)NC(=O)[C@H](CCCNC(=N)N)NC(=O)/C=C/c1ccccc1)C(C)C)C(C)C)C(=O)N[C@@H](Cc1c[nH]c2ccccc12)C(=O)N[C@@H](Cc1c[nH]c2ccccc12)C(N)=O [CPP2] (HELM PEPTIDE1{[O=C(/C=C/c1ccccc1)[*:2]].R.Q.R.R.V.V.I.W.W.[am]}$$$$V2.0) | 5.47 µM | > 100 µM |  |  |
| O=c1[nH]cc(F)c(=O)[nH]1 [Peptide 5-FU, 5-fluorouracil, reference compound] | 4.21 µM |  |  |  |
| Ac-CLLIILRRRIRKQAHAHSK-NH2 [CPP4] |  |  | > 100 µM | > 100 µM |
| H-RIRRWKFRW-NH2 [CAMP5] | > 100 µM | 19.7 µM |  |  |
| H-RLWWWWRRR-NH2 [CAMP3] |  |  | > 100 µM | 17.6 µM |
| H-RQRRVVIWW-NH2 [CAMP7] | > 100 µM | > 100 µM |  |  |
| H-WKWLKKWIK-NH2 [CAMP1] | > 100 µM | 12.4 µM |  |  |
| H-WRKFWKYLK-NH2 [CAMP2] | 21.6 µM | 5.77 µM |  |  |
